Consider four molecules from patent US8598368B2, “Stable neutral nitric oxide source” (priority 2007, dated 2013).

The nature of data set [1]: Stability of the Diels-Alder adduct and its hydrogenated derivative (observation). The class given is physicochemical. The settings on record: white solid precipitated at 0° C., then warmed. Here is the method:
At 0° C., a white solid, presumed to be 2, precipitated from solution. […] To confirm the identity of 2, hydrogenation produced stable compound 3 as described below.

A short description of data set [2]: Treatment of patient with chronic hypertension. The format is in vivo. Particulars: intravenous, blood concentration of 10 nanomolar. An excerpt: A person being treated with sodium iodide for hyperthyroidism has chronic hypertension (BP of 165/90). The patient is given 4 intravenously to maintain a blood concentration of 10 nanomolar. Blood pressure reduces to 140/85.
Treatment of patient with chronic hypertension with 6 The patient who has chronic hypertension (BP of 165/90) is given 6 intravenously to maintain a blood concentration of 10 nanomolar. Blood pressure reduces to 140/85.

As for `N#CC1(N2OC3C=CC2C3)CCCCC1` (stereo not shown) [Compound 2], the “Stability (retro Diels Alder reaction)” value in data set [1] is on record as “On warming, the solid turned blue, suggesting retro Diels Alder reaction”.

Regarding `N#CC1(N2OC3CCC2C3)CCCCC1` (stereo not shown) [Compound 3, N-(−1-cyanocyclohexyl)bicyclo[2.2.1]3,4,5,6-tetrahydro-1,2-oxazine], in data set [1], the “Stability (retro Diels Alder reaction)” value is on record as “stable”.

As to `N#CC1(N2OC3CC2C(Br)C3Br)CCCCC1` (stereo not shown) [Compound 4, N-(1-cyanocyclohexyl)bicyclo[2.2.1]4,5-dibromo-3,6-dihydro-1,2-oxazine], the Blood pressure in data set [2] (person treated with sodium iodide, chronic hypertension (BP of 165/90)) is on record as 140/85.

For `N#CC1(N2OC3CC2C(S)C3O)CCCCC1` (stereo not shown) [Compound 6, N-(1-Cyanocyclohexyl)bicyclo[2.2.1]4-thio-5-hydroxy-3,6-dihydro-1,2-oxazine], in data set [2] (patient with chronic hypertension (BP of 165/90)), the Blood pressure is reported as 140/85.
